Measured values reported in PubChem BioAssay AID330 (DTP/NCI, 2004).
“And” between values parts separate entries of the source, which are not always exact repeats. Equal entries are not always repeated. Toxic doses and inconclusive results are not listed. Rule for the calls: active = survival T/C of 150% or more; inactive = T/C below 125% in these data.

Tested on: P388 leukemia ip, CD2F1 mice, survival T/C
Test: NCI In Vivo Anticancer Drug Screen. Data for tumor model P388 Leukemia (intraperitoneal) in CD2F1 (CDF1) mice
Conditions: endpoint: median survival time, higher = longer survival
Procedure, shortened: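 Mice carrying the transplanted tumor received test compound or vehicle. Survival was recorded in each group, and the value is the treated-group measurement divided by that of the vehicle-treated control group.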

[1] = dose: 25.0 mg/kg/injection, schedule: Q01DX009 (ip), vehicle: water
[2] = dose: 50.0 mg/kg/injection, schedule: Q01DX009 (ip), vehicle: water
[3] = dose: 100.0 mg/kg/injection, schedule: Q01DX009 (ip), vehicle: distilled water + Tween-80
[4] = dose: 100.0 mg/kg/injection, schedule: Q01DX009 (ip), vehicle: water
[5] = dose: 200.0 mg/kg/injection, schedule: Q01DX009 (ip), vehicle: distilled water + Tween-80
[6] = dose: 200.0 mg/kg/injection, schedule: Q01DX009 (ip), vehicle: water
[7] = dose: 25.0 mg/kg/injection, schedule: Q01DX005 (ip), vehicle: saline
[8] = dose: 50.0 mg/kg/injection, schedule: Q01DX005 (ip), vehicle: saline with Tween-80
[9] = dose: 200.0 mg/kg/injection, schedule: Q01DX005 (ip), vehicle: saline with Tween-80

Measured: T/C

COC1CCC(OC2CC(C3(C)CCC4(CC(O)C(C)C(C(C)/C=C(\C)C(=O)C(C)CC(C)C(=O)O)O4)O3)OC3(OC(C4OC(O)(CO)C(C)CC4C)CC3C)C2C)OC1C (stereo not given)
inactive: dose: 12.5 micrograms/kg/injection, schedule: Q01DX009 (ip), vehicle: suspension in saline 106 % of control | dose: 25.0 micrograms/kg/injection, schedule: Q01DX009 (ip), vehicle: suspension in saline 108 % of control | dose: 37.5 micrograms/kg/injection, schedule: Q01DX009 (ip), vehicle: suspension in saline 114 % of control | dose: 50.0 micrograms/kg/injection, schedule: Q01DX009 (ip), vehicle: suspension in saline 108 % of control | dose: 75.0 micrograms/kg/injection, schedule: Q01DX009 (ip), vehicle: suspension in saline 109 % of control | dose: 100.0 micrograms/kg/injection, schedule: Q01DX009 (ip), vehicle: suspension in saline 100 % of control | dose: 150.0 micrograms/kg/injection, schedule: Q01DX009 (ip), vehicle: suspension in saline 100 % of control | dose: 200.0 micrograms/kg/injection, schedule: Q01DX009 (ip), vehicle: suspension in saline 107 % of control | dose: 400.0 micrograms/kg/injection, schedule: Q01DX009 (ip), vehicle: suspension in saline 104 % of control

O=C(Nc1ccc(Cl)c(Cl)c1)Nc1ccc(Oc2ccc(Cl)cc2Cl)cc1S(=O)(=O)O
inactive: dose: 100.0 mg/kg/injection, schedule: Q04DX003 (ip), vehicle: Klucel (hydroxypropylcellulose) (HPC) 91 % of control | dose: 200.0 mg/kg/injection, schedule: Q04DX003 (ip), vehicle: Klucel (hydroxypropylcellulose) (HPC) 100 % of control | dose: 400.0 mg/kg/injection, schedule: Q04DX003 (ip), vehicle: Klucel (hydroxypropylcellulose) (HPC) 95 % of control

CC(C)[C@](O)(C(=O)OCC1=CCN2CC[C@@H](O)[C@@H]12)[C@H](C)O
inactive: [1] 105 % of control | [2] 100 % of control and 104 % of control | [3] 103 % of control | dose: 100.0 mg/kg/injection, schedule: Q01DX009 (ip), vehicle: saline 97 % of control | [4] 105 % of control and 107 % of control | [5] 112 % of control | dose: 200.0 mg/kg/injection, schedule: Q01DX009 (ip), vehicle: saline 114 % of control | [6] 107 % of control and 113 % of control | dose: 400.0 mg/kg/injection, schedule: Q01DX009 (ip), vehicle: distilled water + Tween-80 113 % of control | dose: 400.0 mg/kg/injection, schedule: Q01DX009 (ip), vehicle: saline 112 % of control | dose: 800.0 mg/kg/injection, schedule: Q01DX009 (ip), vehicle: distilled water + Tween-80 103 % of control

COc1cc(C(O)(CCN2CCCCC2)c2ccc3c(c2)OCO3)cc(OC)c1OC (stereo not given)
inactive: dose: 50.0 mg/kg/injection, schedule: Q01DX005 (ip), vehicle: saline + Tween-80 + alcohol 94 % of control | dose: 100.0 mg/kg/injection, schedule: Q01DX005 (ip), vehicle: saline + Tween-80 + alcohol 100 % of control | dose: 200.0 mg/kg/injection, schedule: Q01DX005 (ip), vehicle: saline + Tween-80 + alcohol 93 % of control

CC(N)C(O)C(C)C(=O)O (stereo not given)
inactive: dose: 12.5 mg/kg/injection, schedule: Q01DX009 (ip), vehicle: water 111 % of control | [1] 107 % of control | [2] 107 % of control | [4] 98 % of control | [6] 102 % of control

CN1C2CCC1CC(Cl)C2 (stereo not given)
inactive: dose: 6.0 mg/kg/injection, schedule: Q01DX005 (ip), vehicle: saline 107 % of control | dose: 7.5 mg/kg/injection, schedule: Q01DX005 (ip), vehicle: saline 91 % of control | dose: 12.0 mg/kg/injection, schedule: Q01DX005 (ip), vehicle: saline 107 % of control | dose: 15.0 mg/kg/injection, schedule: Q01DX005 (ip), vehicle: saline 99 % of control | [7] 102 % of control | dose: 30.0 mg/kg/injection, schedule: Q01DX005 (ip), vehicle: saline 99 % of control

CCOC(=O)Cn1ccnc1[N+](=O)[O-]
inactive: dose: 12.5 mg/kg/injection, schedule: Q01DX009 (ip), vehicle: distilled water + Tween-80 102 % of control | dose: 25.0 mg/kg/injection, schedule: Q01DX009 (ip), vehicle: distilled water + Tween-80 97 % of control | dose: 50.0 mg/kg/injection, schedule: Q01DX009 (ip), vehicle: distilled water + Tween-80 100 % of control | [3] 102 % of control | [5] 109 % of control

COC(=O)n1nnc2ncccc21
inactive: dose: 60.0 mg/kg/injection, schedule: Q01DX005 (ip), vehicle: saline 101 % of control | dose: 120.0 mg/kg/injection, schedule: Q01DX005 (ip), vehicle: saline 100 % of control | dose: 240.0 mg/kg/injection, schedule: Q01DX005 (ip), vehicle: saline 92 % of control

O=C(O)c1cc(-c2cccc3ccccc23)nc2cc3ccccc3cc12
inactive: dose: 50.0 mg/kg/injection, schedule: Q01DX009 (ip), vehicle: saline with Tween-80 106 % of control and 94 % of control | dose: 100.0 mg/kg/injection, schedule: Q01DX009 (ip), vehicle: saline with Tween-80 100 % of control | dose: 200.0 mg/kg/injection, schedule: Q01DX009 (ip), vehicle: saline with Tween-80 102 % of control | dose: 400.0 mg/kg/injection, schedule: Q01DX009 (ip), vehicle: saline with Tween-80 118 % of control

OC1(CC2CO2)CCCc2ccccc21 (stereo not given)
inactive: dose: 50.0 mg/kg/injection, schedule: Q01DX009 (ip), vehicle: Klucel (hydroxypropylcellulose) (HPC) 93 % of control | dose: 100.0 mg/kg/injection, schedule: Q01DX009 (ip), vehicle: Klucel (hydroxypropylcellulose) (HPC) 91 % of control | dose: 200.0 mg/kg/injection, schedule: Q01DX009 (ip), vehicle: Klucel (hydroxypropylcellulose) (HPC) 93 % of control

CCCCN1CC(=O)N2CCCC(c3ccccc3)N2C(=O)C1 (stereo not given)
inactive: [8] 103 % of control | dose: 100.0 mg/kg/injection, schedule: Q01DX005 (ip), vehicle: saline with Tween-80 105 % of control | [9] 103 % of control

O=C(/C=N/Nc1ccccc1)Nc1ccccc1C(=O)O
inactive: dose: 50.0 mg/kg/injection, schedule: Q01DX005 (ip), vehicle: Klucel (hydroxypropylcellulose) (HPC) 102 % of control | dose: 100.0 mg/kg/injection, schedule: Q01DX005 (ip), vehicle: Klucel (hydroxypropylcellulose) (HPC) 105 % of control | dose: 200.0 mg/kg/injection, schedule: Q01DX005 (ip), vehicle: Klucel (hydroxypropylcellulose) (HPC) 93 % of control

N#CC1=CC2C3C(=O)N(c4ccccc4)C(=O)C3C1N(Cc1ccccc1)C2c1ccccc1 (stereo not given)
inactive: dose: 12.5 mg/kg/injection, schedule: Q01DX005 (ip), vehicle: saline with Tween-80 95 % of control | dose: 12.5 mg/kg/injection, schedule: Q04DX002 (ip), vehicle: saline with Tween-80 102 % of control | dose: 25.0 mg/kg/injection, schedule: Q01DX005 (ip), vehicle: saline with Tween-80 91 % of control | dose: 25.0 mg/kg/injection, schedule: Q04DX002 (ip), vehicle: saline with Tween-80 94 % of control | [8] 89 % of control | dose: 50.0 mg/kg/injection, schedule: Q04DX002 (ip), vehicle: saline with Tween-80 94 % of control | [9] 87 % of control | dose: 200.0 mg/kg/injection, schedule: Q04DX002 (ip), vehicle: saline with Tween-80 87 % of control | dose: 400.0 mg/kg/injection, schedule: Q04DX002 (ip), vehicle: saline with Tween-80 89 % of control

C[N+](C)([O-])CC1CC=CCC1C[N+](C)(C)[O-] (stereo not given)
inactive: [7] 99 % of control | dose: 50.0 mg/kg/injection, schedule: Q01DX005 (ip), vehicle: saline 106 % of control | dose: 100.0 mg/kg/injection, schedule: Q01DX005 (ip), vehicle: saline 91 % of control
